What all share (test): PK/LDH-coupled NADH oxidation at […] nm
Common to all, as to assay type: biochemical

Experiment [1] has as its target T1, NAGK (N-acetyl glutamate kinase, Arg6) (Saccharomyces cerevisiae, UniProt Q01217, T340S).
T1 construct: gene ARG5

In experiment [2] the target is T2, NAGK (N-acetyl glutamate kinase, Arg6) (Saccharomyces cerevisiae, UniProt Q01217, T340R).
T2 construct: gene ARG5

Experiment [3] has as its target T3, NAGK (N-acetyl glutamate kinase, Arg6) (Saccharomyces cerevisiae, UniProt Q01217, T340N).
T3 construct: gene ARG5

The target in experiment [4] is T4, NAGK (N-acetyl glutamate kinase, Arg6) (Saccharomyces cerevisiae, UniProt Q01217, T340A).
T4 construct: gene ARG5

Experiment [5] addresses T5, NAGK (N-acetyl glutamate kinase, Arg6) (Saccharomyces cerevisiae, UniProt Q01217).
T5 construct: gene ARG5

Experiment [6] deals with T6, NAGK (N-acetyl glutamate kinase, Arg6) (Saccharomyces cerevisiae, UniProt Q01217, V267A).
T6 construct: gene ARG5

The target in experiment [7] is T7, NAGK (N-acetyl glutamate kinase, Arg6) (Saccharomyces cerevisiae, UniProt Q01217, C119Y).
T7 construct: gene ARG5

For experiment [8], the target named is T8, NAGK (N-acetyl glutamate kinase, Arg6) (Saccharomyces cerevisiae, UniProt Q01217, T340L).
T8 construct: gene ARG5

The target of experiment [9] is T9, NAGK (N-acetyl glutamate kinase, Arg6) (Saccharomyces cerevisiae, UniProt Q01217, T340E).
T9 construct: gene ARG5
T9 sequence (Q01217 58-513 T340E): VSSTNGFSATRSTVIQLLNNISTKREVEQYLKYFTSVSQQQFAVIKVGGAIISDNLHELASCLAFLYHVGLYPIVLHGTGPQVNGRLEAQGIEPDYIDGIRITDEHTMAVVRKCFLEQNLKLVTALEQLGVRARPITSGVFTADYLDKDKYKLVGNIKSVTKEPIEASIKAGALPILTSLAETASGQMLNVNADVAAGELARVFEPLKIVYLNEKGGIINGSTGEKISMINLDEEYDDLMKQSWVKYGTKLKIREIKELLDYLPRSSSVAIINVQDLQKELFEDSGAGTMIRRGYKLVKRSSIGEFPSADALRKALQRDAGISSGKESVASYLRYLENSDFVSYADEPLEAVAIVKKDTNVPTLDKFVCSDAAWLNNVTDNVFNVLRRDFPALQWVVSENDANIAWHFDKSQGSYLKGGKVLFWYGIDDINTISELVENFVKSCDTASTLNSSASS

T3 sequence (Q01217 58-513 T340N): as the sequence (Q01217 58-513 T340E) above, with E283N counted along it
T7 sequence (Q01217 58-513 C119Y): as the sequence (Q01217 58-513 T340E) above, with C62Y, E283T counted along it
T1 sequence (Q01217 58-513 T340S): as the sequence (Q01217 58-513 T340E) above, with E283S counted along it
T6 sequence (Q01217 58-513 V267A): as the sequence (Q01217 58-513 T340E) above, with V210A, E283T counted along it
T5 sequence (Q01217 58-513): as the sequence (Q01217 58-513 T340E) above, with E283T counted along it
T4 sequence (Q01217 58-513 T340A): as the sequence (Q01217 58-513 T340E) above, with E283A counted along it
T2 sequence (Q01217 58-513 T340R): as the sequence (Q01217 58-513 T340E) above, with E283R counted along it
T8 sequence (Q01217 58-513 T340L): as the sequence (Q01217 58-513 T340E) above, with E283L counted along it

The term IC50 denotes the concentration at which inhibition is half-maximal. Lower therefore signals greater potency in that assay. As to `N=C(N)NCCC[C@H](N)C(=O)O` [arginine], the IC50 was found to be 170 ± 120 µM in [1]; 2480 ± 670 µM in experiment [2]; 24000 ± 5360 µM in [3]; 2250 ± 200 µM in [4]; 90 µM in experiment [5]; 2830 ± 160 µM in experiment [6]. Moreover, the figures for the IC50 in [7], in [8] and in experiment [9] were 780 ± 50 µM, 10500 ± 800 µM and 6870 ± 1000 µM, respectively.

The values are drawn from paper PMC9241915, “Functional Analysis of Feedback Inhibition-Insensitive Variants of N-Acetyl Glutamate Kinase Found in Sake Yeast Mutants with Ornithine Overproduction” (Microbiology Spectrum, 2022).
